Experimental data taken from patent US8940909B2, “Indicator platform” (Biosynth AG, priority 2009, dated 2015).

What was measured:
Test in all cases: IO staining of colonies of beta-D-galactosidase positive/negative bacteria (Table IVb)
Assay type in all cases: cell-based
Salmonella bongori 81 = details: Salmonella bongori strain 81, b-gal +; 24 h on Nutrient Agar, 150 mg/l indicator, 100 mg/l IPTG
[1] = system: Enterobacter aerogenes 242; details: Enterobacter aerogenes strain 242, b-gal +; 24 h on Nutrient Agar, 150 mg/l indicator, 100 mg/l IPTG; on C: Color of colonies: key: −: absent; +/−: weak; +: strong; ++: very strong; on G: Growth of colonies: key: −: absent; +/−: weak; +: strong; ++: very strong
Escherichia coli 61 = details: Escherichia coli strain 61, b-gal +; 24 h on Nutrient Agar, 150 mg/l indicator, 100 mg/l IPTG
Staphylococcus aureus 2 = details: Staphylococcus aureus strain 2, b-gal −, 24 h on Nutrient Agar, 150 mg/l indicator, 100 mg/l IPTG
[2] = system: Yersinia enterocolitica 175; details: Yersinia enterocolitica strain 175, b-gal +/−; 24 h on Nutrient Agar, 150 mg/l indicator, 100 mg/l IPTG; on G: Growth of colonies: key: −: absent; +/−: weak; +: strong; ++: very strong
Escherichia coli 270 = details: Escherichia coli strain 270, b-gal +; 24 h on Nutrient Agar, 150 mg/l indicator, 100 mg/l IPTG
Citrobacter freundii 181 = details: Citrobacter freundii strain 181, b-gal +; 24 h on Nutrient Agar, 150 mg/l indicator, 100 mg/l IPTG
[3] = system: Shigella dysenteriae Serovar 1 131; details: Shigella dysenteriae Serovar 1 strain 131, b-gal +/−; 24 h on Nutrient Agar, 150 mg/l indicator, 100 mg/l IPTG
Enterobacter cloacae 245 = details: Enterobacter cloacae strain 245, b-gal +; 24 h on Nutrient Agar, 150 mg/l indicator, 100 mg/l IPTG
[4] = system: Salmonella enteritidis 43; details: Salmonella enteritidis strain 43, b-gal −; 24 h on Nutrient Agar, 150 mg/l indicator, 100 mg/l IPTG; further: key: −: absent; +/−: weak; +: strong; ++: very strong
Shigella sonnei 133 = details: Shigella sonnei strain 133, b-gal +/−; 24 h on Nutrient Agar, 150 mg/l indicator, 100 mg/l IPTG
[5] = system: Escherichia coli (O157:H7) 60; details: Escherichia coli (O157:H7) strain 60, b-gal +; 24 h on Nutrient Agar, 150 mg/l indicator, 100 mg/l IPTG
[6] = system: Staphylococcus intermedius 31; details: Staphylococcus intermedius strain 31, b-gal +; 24 h on Nutrient Agar, 150 mg/l indicator, 100 mg/l IPTG
[7] = system: Listeria monocytogenes (4b) 290; details: Listeria monocytogenes (4b) strain 290, b-gal −; 24 h on Nutrient Agar, 150 mg/l indicator, 100 mg/l IPTG; on C: Color of colonies: key: −: absent; +/−: weak; +: strong; ++: very strong; on F: Fluorescence of colonies: key: −: absent; +/−: weak; +: strong; ++: very strong
Salmonella illa 73 = details: Salmonella illa strain 73, b-gal +; 24 h on Nutrient Agar, 150 mg/l indicator, 100 mg/l IPTG
Bacillus subtilis 65 = details: Bacillus subtilis strain 65, b-gal −; 24 h on Nutrient Agar, 150 mg/l indicator, 100 mg/l IPTG
[8] = system: Klebsiella pneumoniae 164; details: Klebsiella pneumoniae strain 164, b-gal +; 24 h on Nutrient Agar, 150 mg/l indicator, 100 mg/l IPTG; on C: Color of colonies: key: −: absent; +/−: weak; +: strong; ++: very strong; on G: Growth of colonies: key: −: absent; +/−: weak; +: strong; ++: very strong
[9] = system: Staphylococcus saprophyticus 273; details: Staphylococcus saprophyticus strain 273, b-gal +; 24 h on Nutrient Agar, 150 mg/l indicator, 100 mg/l IPTG; on G: Growth of colonies: key: −: absent; +/−: weak; +: strong; ++: very strong
[10] = system: Streptococcus agalactiae 195; details: Streptococcus agalactiae strain 195, b-gal −; 24 h on Nutrient Agar, 150 mg/l indicator, 100 mg/l IPTG; on C: Color of colonies: key: −: absent; +/−: weak; +: strong; ++: very strong; on F: Fluorescence of colonies: key: −: absent; +/−: weak; +: strong; ++: very strong
Aeromonas hydrophila 292 = details: Aeromonas hydrophila strain 292, b-gal +; 24 h on Nutrient Agar, 150 mg/l indicator, 100 mg/l IPTG
Serratia marcescens 40 = details: Serratia marcescens strain 40, b-gal +; 24 h on Nutrient Agar, 150 mg/l indicator, 100 mg/l IPTG

O=C(c1ccccc1)c1ccccc1-n1cc(O[C@@H]2O[C@H](CO)[C@H](O)[C@H](O)[C@H]2O)c2ccc(Cl)cc21 [Indicator I21a, 1-(2-Benzoylphenyl)-6-chloro-1H-indol-3-yl-beta-D-galactopyranoside]
C: Color of colonies (Salmonella bongori 81): +/− | F: Fluorescence of colonies (Salmonella bongori 81): +/− | G: Growth of colonies (Salmonella bongori 81): + | C: Color of colonies [1]: + | F: Fluorescence of colonies [1]: + | G: Growth of colonies [1]: + | C: Color of colonies (Escherichia coli 61): + | F: Fluorescence of colonies (Escherichia coli 61): + | G: Growth of colonies (Escherichia coli 61): + | F: Fluorescence of colonies (Staphylococcus aureus 2): − | G: Growth of colonies (Staphylococcus aureus 2): +/− | C: Color of colonies (Staphylococcus aureus 2; footnote 2: S. aureus natural color): − | C: Color of colonies [2]: − | F: Fluorescence of colonies [2]: +/− | G: Growth of colonies [2]: + | C: Color of colonies (Escherichia coli 270): ++ | F: Fluorescence of colonies (Escherichia coli 270): + | G: Growth of colonies (Escherichia coli 270): + | C: Color of colonies (Citrobacter freundii 181): + | F: Fluorescence of colonies (Citrobacter freundii 181): + | G: Growth of colonies (Citrobacter freundii 181): + | C: Color of colonies [3]: − | F: Fluorescence of colonies [3]: − | G: Growth of colonies [3]: + | C: Color of colonies (Enterobacter cloacae 245): + | F: Fluorescence of colonies (Enterobacter cloacae 245): + | G: Growth of colonies (Enterobacter cloacae 245): + | C: Color of colonies [4]: − | F: Fluorescence of colonies [4]: − | G: Growth of colonies [4]: + | C: Color of colonies (Shigella sonnei 133): + | F: Fluorescence of colonies (Shigella sonnei 133): + | G: Growth of colonies (Shigella sonnei 133): + | C: Color of colonies [5]: + | F: Fluorescence of colonies [5]: + | G: Growth of colonies [5]: + | C: Color of colonies [6]: +/− | F: Fluorescence of colonies [6]: +/− | G: Growth of colonies [6]: +/− | C: Color of colonies [7]: − | F: Fluorescence of colonies [7]: − | G: Growth of colonies [7]: +/− | C: Color of colonies (Salmonella illa 73): − | F: Fluorescence of colonies (Salmonella illa 73): − | G: Growth of colonies (Salmonella illa 73): + | C: Color of colonies (Bacillus subtilis 65): − | F: Fluorescence of colonies (Bacillus subtilis 65): − | G: Growth of colonies (Bacillus subtilis 65): +/− | C: Color of colonies [8]: + | F: Fluorescence of colonies [8]: + | G: Growth of colonies [8]: + | C: Color of colonies [9]: + | F: Fluorescence of colonies [9]: + | G: Growth of colonies [9]: + | C: Color of colonies [10]: − | F: Fluorescence of colonies [10]: − | G: Growth of colonies [10]: +/− | C: Color of colonies (Aeromonas hydrophila 292): + | F: Fluorescence of colonies (Aeromonas hydrophila 292): + | G: Growth of colonies (Aeromonas hydrophila 292): + | C: Color of colonies (Serratia marcescens 40): ++ | F: Fluorescence of colonies (Serratia marcescens 40): + | G: Growth of colonies (Serratia marcescens 40): +
